Assays:
[1] = Inhibition of Trypanosoma brucei methionyl tRNA synthetase using L-methionine as substrate preincubated for 15 mins followed by substrate addition measured after 120 mins in presence of ATP by Kinase Glo chemiluminescence assay
Trypanosoma brucei = assay: Antitrypanosomal activity against Trypanosoma brucei 427 bloodstream forms after 48 hrs by alamar blue assay; format: functional; settings: Trypanosoma brucei, 427, 48 h
HepG2 = assay: Cytotoxicity against human HepG2 cells after 48 hrs by alamar blue assay; format: cell-based; settings: hepg2, 48 h
[2] = Cytotoxicity against human CRL8155 cells after 48 hrs by alamar blue assay; format: cell-based; settings: crl8155, 48 h
[3] = AUC in mouse at 50 mg/kg, administered through oral gavage by LC-MS analysis; format: ADME, organism-based; settings: in vivo
[4] = Cmax in mouse at 50 mg/kg, administered through oral gavage by LC-MS analysis; format: ADME, organism-based; parameters: dose 50 mg/kg, route oral; settings: in vivo

Compound | IC50 [1] | EC50 (Trypanosoma brucei; read-out: EC50) | EC50 (Trypanosoma brucei; read-out: pEC50 (converted)) | CC50 (HepG2) | CC50 [2] | AUC [3] | Cmax [4]
CCOc1c(Br)cc(Cl)cc1CN[C@H]1CCCN(c2nc3nc(Cl)ccc3[nH]2)C1 | < 50 nM | 230 nM |  |  |  |  | 
Oc1c(Cl)cc(Cl)cc1CN[C@H]1CCCN(c2nc3nc(Cl)ccc3[nH]2)C1 | < 50 nM | 241 nM |  |  |  |  | 
CCCOc1c(Cl)cc(Cl)cc1CN[C@H]1CCCN(c2nc3nc(Cl)ccc3[nH]2)C1 | < 50 nM | 827 nM |  |  |  |  | 
Clc1cc(Cl)c(OCC2CC2)c(CN[C@H]2CCCN(c3nc4nc(Cl)ccc4[nH]3)C2)c1 | < 50 nM | 511 nM |  |  |  |  | 
Clc1cc(Cl)c(Cl)c(CN[C@H]2CCCN(c3nc4nc(Cl)ccc4[nH]3)C2)c1 | < 50 nM | 354 nM |  |  |  |  | 
Clc1ccc2nc(N3CCC[C@H](NCc4cc(Br)cc(Br)c4)C3)[nH]c2n1 | < 50 nM | 85 nM | 79.4 nM | 39100 nM | 47600 nM |  | 
Clc1cc(Cl)c2c(c1)C(N[C@H]1CCCN(c3nc4nc(Cl)ccc4[nH]3)C1)CCN2 (some centres not stated) | 89 nM | 57 nM | 50.1 nM | 40200 nM | 19000 nM | 15.8 µM·h | 14.7 µM
COC(=O)C(NCCN(C)c1nc2nc(Cl)ccc2[nH]1)c1cc(Cl)cc(Cl)c1 (configuration not stated) | 86 nM | 5270 nM |  |  |  |  | 
CCOc1c(Cl)cc(Cl)cc1CN[C@H]1CCCN(c2nc3nc(Cl)ccc3[nH]2)C1 | < 50 nM | 111 nM |  |  |  |  | 
CN(CCN[C@@H]1CCNc2c(Cl)cc(Cl)cc21)c1nc2nc(Cl)ccc2[nH]1 | < 50 nM | 4 nM | 3.98 nM | 30600 nM | 18500 nM | 2.33 µM·h | 1.3 µM
C=CCOc1c(Cl)cc(Cl)cc1CN[C@H]1CCCN(c2nc3nc(Cl)ccc3[nH]2)C1 | < 50 nM | 326 nM |  |  |  |  | 
CCOc1c(Cl)cc(Cl)cc1CNCCN(C)c1nc2nc(Cl)ccc2[nH]1 | < 50 nM | 314 nM |  |  |  |  | 
CCOc1c(Br)cc(Br)cc1CN[C@H]1CCCN(c2nc3nc(Cl)ccc3[nH]2)C1 | < 50 nM | 40 nM | 39.8 nM | 18700 nM | 10500 nM | 3.03 µM·h | 2.1 µM
COc1c(Br)cc(Br)cc1CN[C@H]1CCCN(c2nc3nc(Cl)ccc3[nH]2)C1 | < 50 nM | 334 nM |  |  |  |  | 
CC(C)Oc1c(Cl)cc(Cl)cc1CN[C@H]1CCCN(c2nc3nc(Cl)ccc3[nH]2)C1 | 305 nM | 1700 nM |  |  |  |  | 
Clc1cc(Br)cc(CN[C@H]2CCCN(c3nc4nc(Cl)ccc4[nH]3)C2)c1 | < 50 nM | 71 nM | 63.1 nM | > 50000 nM | 43000 nM | 78.1 µM·h | 19.2 µM
CN(CCNC(C(N)=O)c1cc(Cl)cc(Cl)c1)c1nc2nc(Cl)ccc2[nH]1 (configuration not stated) | 75 nM | 4490 nM |  |  |  |  | 
CN(CCNC(CO)c1cc(Cl)cc(Cl)c1)c1nc2nc(Cl)ccc2[nH]1 (configuration not stated) | 101 nM | 995 nM |  |  |  |  | 
CCNc1c(Cl)cc(Cl)cc1CN[C@H]1CCCN(c2nc3nc(Cl)ccc3[nH]2)C1 | < 50 nM | 359 nM |  |  |  |  | 
COc1c(Cl)cc(Cl)cc1CN[C@H]1CCCN(c2nc3nc(Cl)ccc3[nH]2)C1 | < 50 nM | 357 nM |  |  |  |  | 
N#Cc1cc(Cl)cc(CN[C@H]2CCCN(c3nc4nc(Cl)ccc4[nH]3)C2)c1 | < 50 nM | 111 nM |  |  |  |  | 
Clc1cc(Cl)c(OC2CC2)c(CN[C@H]2CCCN(c3nc4nc(Cl)ccc4[nH]3)C2)c1 | 389 nM | 3120 nM |  |  |  |  | 

Reference: ChEMBL document CHEMBL4020750 (Bioorg Med Chem Lett, 2017)
